This experiment concerns cancer cells. Briefly: MTS assay: inhibition of cell growth (formazan absorbance at 492 nm after 72 hours with test compound). It is filed as cell-based. Particulars: inhibition class. The essentials:
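DMEM with 1% FBS; cells seeded at 3000/well and grown 18 h at 37 °C, then exposed to compound for 72 h and to MTS/PMS for 4 h. IC50 is the concentration giving a 50% absorbance drop; grades are % inhibition bands.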
For orientation: Formazan colour is commonly taken as a measure of viable cells.

Where [1] appears, read: Homo sapiens, DLD-1 cells, read-out: DLD-1, MTS 72 hours at 10 uM.
The mark [2] stands for this setting: Homo sapiens, KATO III cells, read-out: KATO III, MTS 72 hours at 10 uM.
Where [3] appears, read: Homo sapiens, MDA-MB-231 cells, read-out: MDA-MB-231, MTS 72 hours at 10 uM.
The mark [4] stands for this setting: Homo sapiens, NCI-H1299 cells, read-out: NCI-H1299, MTS 72 hours at 10 uM.
[5] abbreviates: Homo sapiens, PC-3 cells, read-out: PC-3, MTS 72 hours at 10 uM.
The mark [6] stands for this setting: PACA-2 cells, read-out: PACA-2, MTS 72 hours at 10 uM.

Like-named read-outs stand apart in the source and are kept apart here.

The values that follow come from patent publication US8343983B2, “Substituted pyrazolo-pyrimidine compounds” (ArQule, Inc., priority 2009, dated 2013).

Consider `c1ccc(CN2CCc3n[nH]c4nc(NCCCN5CCCCC5)nc2c34)cc1` [Compound 90, 6-benzyl-N-(3-piperidin-1-ylpropyl)-2,6,7,8-tetrahydro-1,2,3,5,6-pentaazaacenaphthylen-4-amine], for which the inhibition at 10 µM was over 79% under setting [1]; over 79% under setting [2]; over 79% under setting [3]; over 79% under setting [4]; over 79% under setting [5]; over 79% under setting [6].

For the compound `Clc1ccc(CCNc2nc3c4c(n[nH]c4n2)CCN3Cc2ccccc2)cc1Cl` [Compound 70, 6-benzyl-N-[2-(3,4-dichlorophenyl)ethyl]-2,6,7,8-tetrahydro-1,2,3,5,6-pentaazaacenaphthylen-4-amine], the inhibition at 10 µM under setting [1] is over 79%; the inhibition at 10 µM under setting [2] was over 79%; the inhibition at 10 µM under setting [3] was over 79%; the inhibition at 10 µM under setting [4] was over 79%; the inhibition at 10 µM under setting [5] was under 50%; the inhibition at 10 µM under setting [6] was over 79%.

Turning to `c1ccc(N2CCc3n[nH]c4nc(NCc5cccnc5)nc2c34)cc1` [Compound 214, 6-phenyl-N-(pyridin-3-ylmethyl)-2,6,7,8-tetrahydro-1,2,3,5,6-pentaazaacenaphthylen-4-amine], the inhibition at 10 µM reads like this: under setting [1], 50 to 79%; under setting [2], 50 to 79%; under setting [3], under 50%; under setting [4], 50 to 79%; under setting [5], under 50%; under setting [6], 50 to 79%.

For `COc1ccc(CN2CCCc3n[nH]c4nc(NCCc5c[nH]c6ccc(Cl)cc56)nc2c34)cc1` [Compound 252, N-[2-(5-chloro-1H-indol-3-yl)ethyl]-6-(4-methoxybenzyl)-6,7,8,9-tetrahydro-2H-1,2,3,5,6-pentaazabenzo[cd]azulen-4-amine], the inhibition at 10 µM under setting [1] lay in the range of 50 to 79%; the inhibition at 10 µM under setting [2] is under 50%; the inhibition at 10 µM under setting [3] is under 50%; the inhibition at 10 µM under setting [4] was under 50%; the inhibition at 10 µM under setting [5] was under 50%; the inhibition at 10 µM under setting [6] is under 50%.

In the case of `COc1ccc(CN2CCc3n[nH]c4nc(NC5CCCCC5)nc2c34)cc1` [Compound 107, N-cyclohexyl-6-(4-methoxybenzyl)-2,6,7,8-tetrahydro-1,2,3,5,6-pentaazaacenaphthylen-4-amine], the inhibition at 10 µM runs as follows: under setting [1], under 50%; under setting [2], under 50%; under setting [3], under 50%; under setting [4], under 50%; under setting [5], under 50%; under setting [6], under 50%.

For `c1ccc(CN2CCc3n[nH]c4nc(NCc5ccco5)nc2c34)cc1` [Compound 54, 6-benzyl-N-(2-furylmethyl)-2,6,7,8-tetrahydro-1,2,3,5,6-pentaazaacenaphthylen-4-amine], the inhibition at 10 µM is under 50% under setting [1]; under 50% under setting [2]; under 50% under setting [3]; under 50% under setting [4]; under 50% under setting [5]; under 50% under setting [6].

As for `c1ccc(CN2CCc3n[nH]c4nc(N5CCN(Cc6ccc7c(c6)OCO7)CC5)nc2c34)cc1` [Compound 15, 4-[4-(1,3-benzodioxol-5-ylmethyl)piperazin-1-yl]-6-benzyl-2,6,7,8-tetrahydro-1,2,3,5,6-pentaazaacenaphthylene], the inhibition at 10 µM under setting [1] is under 50%; the inhibition at 10 µM under setting [2] was under 50%; the inhibition at 10 µM under setting [3] was under 50%; the inhibition at 10 µM under setting [4] is under 50%; the inhibition at 10 µM under setting [5] is under 50%; the inhibition at 10 µM under setting [6] is under 50%.

`Fc1ccccc1CN1CCN(c2nc3c4c(n[nH]c4n2)CCN3Cc2ccccc2)CC1` [Compound 5, 6-benzyl-4-[4-(2-fluorobenzyl)piperazin-1-yl]-2,6,7,8-tetrahydro-1,2,3,5,6-pentaazaacenaphthylene]: the inhibition at 10 µM under setting [1] is under 50%; the inhibition at 10 µM under setting [2] was in the range of 50 to 79%; the inhibition at 10 µM under setting [3] is over 79%; the inhibition at 10 µM under setting [4] was under 50%; the inhibition at 10 µM under setting [5] is over 79%; the inhibition at 10 µM under setting [6] is under 50%.

Consider `O=C(C1CN(Cc2ccccc2)c2nc(NCc3ccccc3)nc3[nH]nc1c23)N1CCOCC1` (stereo not drawn) [Compound 237, N,6-dibenzyl-8-(morpholin-4-ylcarbonyl)-2,6,7,8-tetrahydro-1,2,3,5,6-pentaazaacenaphthylen-4-amine], for which the inhibition at 10 µM runs as follows: under setting [1], under 50%; under setting [2], under 50%; under setting [3], under 50%; under setting [4], under 50%; under setting [5], under 50%; under setting [6], under 50%.

Turning to `c1ccc(CCNc2nc3c4c(n[nH]c4n2)CCN3c2ccccc2)cc1` [Compound 220, 6-phenyl-N-(2-phenylethyl)-2,6,7,8-tetrahydro-1,2,3,5,6-pentaazaacenaphthylen-4-amine], the inhibition at 10 µM was over 79% under setting [1]; over 79% under setting [2]; 50 to 79% under setting [3]; 50 to 79% under setting [4]; 50 to 79% under setting [5]; over 79% under setting [6].

Regarding `Fc1ccc(CCNc2nc3c4c(n[nH]c4n2)CCN3Cc2ccccc2)cc1` [Compound 46, 6-benzyl-N-[2-(4-fluorophenyl)ethyl]-2,6,7,8-tetrahydro-1,2,3,5,6-pentaazaacenaphthylen-4-amine], the inhibition at 10 µM under setting [1] was over 79%; the inhibition at 10 µM under setting [2] was over 79%; the inhibition at 10 µM under setting [3] was over 79%; the inhibition at 10 µM under setting [4] was 50 to 79%; the inhibition at 10 µM under setting [5] is under 50%; the inhibition at 10 µM under setting [6] is over 79%.

In the case of `N#Cc1cccnc1N1CCN(c2nc3c4c(n[nH]c4n2)CCN3Cc2ccccc2)CC1` [Compound 8, 2-[4-(6-benzyl-2,6,7,8-tetrahydro-1,2,3,5,6-pentaazaacenaphthylen-4-yl)piperazin-1-yl]nicotinonitrile], the inhibition at 10 µM is under 50% under setting [1]; under 50% under setting [2]; under 50% under setting [3]; under 50% under setting [4]; under 50% under setting [5]; under 50% under setting [6].

For `CC(O)CNc1nc2c3c(n[nH]c3n1)CCN2Cc1ccccc1` (stereo not drawn) [Compound 69, 1-[(6-benzyl-2,6,7,8-tetrahydro-1,2,3,5,6-pentaazaacenaphthylen-4-yl)amino]propan-2-ol], the inhibition at 10 µM under setting [1] was under 50%; the inhibition at 10 µM under setting [2] was under 50%; the inhibition at 10 µM under setting [3] is under 50%; the inhibition at 10 µM under setting [4] is under 50%; the inhibition at 10 µM under setting [5] was under 50%; the inhibition at 10 µM under setting [6] was under 50%.

As for `O=C1CCCN1CCCNc1nc2c3c(n[nH]c3n1)CCN2Cc1ccccc1` [Compound 51, 1-{3-[(6-benzyl-2,6,7,8-tetrahydro-1,2,3,5,6-pentaazaacenaphthylen-4-yl)amino]propyl}pyrrolidin-2-one], the inhibition at 10 µM was under 50% under setting [1]; under 50% under setting [2]; under 50% under setting [3]; under 50% under setting [4]; under 50% under setting [5]; under 50% under setting [6].

For `FC(F)(F)c1ccnc(N2CCN(c3nc4c5c(n[nH]c5n3)CCN4Cc3ccccc3)CC2)n1` [Compound 4, 6-benzyl-4-{4-[4-(trifluoromethyl)pyrimidin-2-yl]piperazin-1-yl}-2,6,7,8-tetrahydro-1,2,3,5,6-pentaazaacenaphthylene], the inhibition at 10 µM is, setting by setting: under setting [1], 50 to 79%; under setting [2], under 50%; under setting [3], over 79%; under setting [4], over 79%; under setting [5], over 79%; under setting [6], under 50%.

Consider `COc1ccc(CN2CCc3n[nH]c4nc(NCCc5c[nH]c6ccc(Cl)cc56)nc2c34)cc1` [Compound 115, N-[2-(5-chloro-1H-indol-3-yl)ethyl]-6-(4-methoxybenzyl)-2,6,7,8-tetrahydro-1,2,3,5,6-pentaazaacenaphthylen-4-amine], for which the inhibition at 10 µM is, setting by setting: under setting [1], over 79%; under setting [2], over 79%; under setting [3], over 79%; under setting [4], over 79%; under setting [5], over 79%; under setting [6], over 79%.

Take `CCC(C)Nc1nc2c3c(n[nH]c3n1)CCN2Cc1ccccc1` (stereo not drawn) [Compound 52, 6-benzyl-N-sec-butyl-2,6,7,8-tetrahydro-1,2,3,5,6-pentaazaacenaphthylen-4-amine]: the inhibition at 10 µM is, setting by setting: under setting [1], over 79%; under setting [2], over 79%; under setting [3], over 79%; under setting [4], 50 to 79%; under setting [5], under 50%; under setting [6], 50 to 79%.

Take `COc1ccc(CN2CCCc3n[nH]c4nc(NCc5ccc(Cl)cc5)nc2c34)cc1` [Compound 253, N-(4-chlorobenzyl)-6-(4-methoxybenzyl)-6,7,8,9-tetrahydro-2H-1,2,3,5,6-pentaazabenzo[cd]azulen-4-amine]: the inhibition at 10 µM runs as follows: under setting [1], under 50%; under setting [2], under 50%; under setting [3], under 50%; under setting [4], 50 to 79%; under setting [5], under 50%; under setting [6], under 50%.

In the case of `c1ccc(CN2CCN(c3nc4c5c(n[nH]c5n3)CCN4c3ccccc3)CC2)cc1` [Compound 217, 4-(4-benzylpiperazin-1-yl)-6-phenyl-2,6,7,8-tetrahydro-1,2,3,5,6-pentaazaacenaphthylene], the inhibition at 10 µM was under 50% under setting [1]; under 50% under setting [2]; under 50% under setting [3]; under 50% under setting [4]; under 50% under setting [5]; under 50% under setting [6].
